Laboratory results published in patent US20220098149A1, “METHOD FOR SYNTHESIS OF 9-CIS-BETA-CAROTENE AND FORMULATIONS THEREOF” (Ramot at Tel-Aviv University Ltd., priority 2016, published 2022).

Experiment: Initial stability tests of synthetic/purified 9CBC
Assay type: physicochemical

Compound: CC1=C(/C=C/C(C)=C\C=C\C(C)=C\C=C\C=C(C)\C=C\C=C(C)\C=C\C2=C(C)CCCC2(C)C)C(C)(C)CCC1 [9CBC, 9-cis-β-carotene]
- Time to full decomposition (sensitive to oxygen and UV degradation): less than 24 hours
- Stability of purified 9CBC (under vacuum or nitrogen flushing): unstable
